Measured values from patent US7867979B2, “Drug composition for treating 2 type diabetes and diabetic chronicity complications” (Hainan Deze Drug Research Co., Ltd., priority 2006, dated 2011).
Read-outs that look alike come from different tables or passages of the source.

Key:
[1] = Pharmacokinetics of the composition after oral administration; assay type: in vivo; conditions: rats, serum; for AUC(0-inf) / Cmax: rat
Experimental: Mangiferin is suspended in 1% carboxymethyl cellulose sodium solution, the concentration of mangiferin is 25 mg/mL (Sample A).
Berberine is suspended in 1% carboxymethyl cellulose sodium solution, the concentration of berberine is 25 mg/mL (Sample B). The composition which is composed of mangiferin and berberine in the ratio of 1:4 is suspended in 1% carboxymethyl cellulose sodium solution, the concentration of the composition is 50 mg/mL (Sample C).
All rats were fasted for 16 hours and drunk water freely. The rats are oral administrated respectively sample A (40 mg/kg), sample B (160 mg/kg) and sample C (200 mg/kg). From the rats, 0.4 ml blood samples were taken respectively at the time of 5 minutes before oral administrated and 0 h, 1 h, 2 h, 3 h, 4 h, 5 h, 6 h, 8 h, 10 h, 12 h, 15 h, and 24 h after oral administrated. These blood samples were put into centrifuge tube containing heparin, then were centrifuged for 10 minutes, the serum is obtained.
Serum samples are taken accurately 100 μL into centrifuge tubes, then 400 μL acetonitrile-acetic acid (9:1) is added into centrifuge tubes. The samples are whorled for 1.5 minutes, and then the samples are centrifuged 3000 r/min for 10 minutes. The supernatant was put into clear tube, dried by nitrogen, 100 μL mobile phase were put into the remnants, whorled for 1.5 minutes, then centrifuged 3000 r/min for 10 minutes. The Supernatant was put into sample bottle. All the samples are determined by HPLC. Injection volume is 20 μL.
4.1 Apparatus: Angilent 1100 HPLC (American Agilent Co.): include G1312A dual pump and G1313A Auto-Sampler.
Chromatographic column: discover ODS column (250 mm×6 mm, 5 μm);
The mobile phase: methanol-0.1% H3PO4 water.
Velocity of flow: 1.0 ml/min.
Detection Wavelength: 264 nm.

aldose reductase (AR) = molecular target: T1, aldose reductase (AR) (Rattus norvegicus, UniProt P07943); assay: Activity of aldose reductase (AR) of lens in GK rats; assay type: in vivo, Goto-Kakizaki rats (GK); conditions: oral daily 12 weeks, specific activity, in U/mg protein; for AR activity of lens NADH (0.1 mmol/L): NADH 0.1 mmol/L system; for AR activity of lens NADPH (0.1 mmol/L): NADPH 0.1 mmol/L system
T1 construct: from tissue; host or cells: lens of GK (Goto-Kakizaki) and Wistar rats
Experimental: GK rats control group (n=10); mangiferin groups (10, 30, 200 mg/kg, each group 10 rats); berberine groups (10, 20, 150 mg/kg, each group 10 rats); composition group 1[[mangiferin (10 mg/kg)+berberine (10 mg/kg)], 10 rats]; composition group 2[[mangiferin (200 mg/kg)+berberine (150 mg/kg)], 10 rats]. Wistar rats are normal control group (10 rats). GK rats control group and Wistar rats group were given saline. The other groups were given test drugs. Test samples were administrated orally at the same time every day for 12 weeks. […] At the End of the experiment, the left side lens of rats was taken, then these lenses were added into glycerol and put into refrigerator (−80° C.□) to preserve to determine AR activity. The determination method of AR activity refer to Maragoudakis's method and change slightly, that is: the activity of enzyme is indicated by the record of the absorbance of NADPH in 340 nm decline IOU. […] The second reaction system is 0.1 mmol/L NADH instead of NADPH, the rest of the reagent is same as one of the first response system. The activity of enzyme and the protein content in tissue homogenate are determined at the same time. a unit enzyme activity is indicated by the quantity of the enzyme that produce 1 μmol NADP^+ (or NDA^+) in one minute. […] The results have been calculated as mean±SD ( x±SD) and the comparisons of the data have been done by t-test. There are ten rats in every group. GK rats control group and wistar rats group were given saline. The other groups were given test drugs. Test samples were administrated orally at the same time every day for 12 weeks. The measurements are as same as the above experiment.

[2] = 2.0 g once orally; cited from earlier work
[3] = in vivo; cited from earlier work
rat = conditions: intraperitoneal injection once; cited from earlier work
[4] = cited from earlier work

| AUC(0-inf) ([1]; sample B 160 mg/kg or sample C (1:4) 200 mg/kg, read-out: AUC0-∞ of berberine) [µg·h/mL] | Cmax ([1]; sample B 160 mg/kg or sample C (1:4) 200 mg/kg, read-out: Cmax of berberine) [ng/mL] | T1/2β of berberine ([1]; sample B 160 mg/kg or sample C (1:4) 200 mg/kg) [h] | AR activity of lens NADH (0.1 mmol/L) (aldose reductase (AR); 20 mg/kg) | AR activity of lens NADPH (0.1 mmol/L) (aldose reductase (AR); 20 mg/kg) | AR activity of lens NADH (0.1 mmol/L) (aldose reductase (AR); 150 mg/kg) | AR activity of lens NADPH (0.1 mmol/L) (aldose reductase (AR); 150 mg/kg) | SMILES | AR activity of lens NADH (0.1 mmol/L) (aldose reductase (AR); 10 mg/kg) | AR activity of lens NADPH (0.1 mmol/L) (aldose reductase (AR); 10 mg/kg) | Adverse reactions [2] | Bioavailability [3] | AUC(0-inf) ([1]; sample A 40 mg/kg or sample C (1:4) 200 mg/kg, read-out: AUC0-∞ of mangiferin) [µg·h/mL] | Cmax ([1]; sample A 40 mg/kg or sample C (1:4) 200 mg/kg, read-out: Cmax of mangiferin) [ng/mL] | T1/2β of mangiferin ([1]; sample A 40 mg/kg or sample C (1:4) 200 mg/kg) [h] | AR activity of lens NADH (0.1 mmol/L) (aldose reductase (AR); 30 mg/kg) | AR activity of lens NADPH (0.1 mmol/L) (aldose reductase (AR); 30 mg/kg) | AR activity of lens NADH (0.1 mmol/L) (aldose reductase (AR); 200 mg/kg) | AR activity of lens NADPH (0.1 mmol/L) (aldose reductase (AR); 200 mg/kg) | LD50 (rat) [mg/kg] | Solubility in water [4] |
| --- | --- | --- | --- | --- | --- | --- | --- | --- | --- | --- | --- | --- | --- | --- | --- | --- | --- | --- | --- | --- |
| 3440 ± 250 | 54100 ± 2600 | 3.5 ± 0.3 | 1.32 ± 0.37 | 2.28 ± 0.51 | 0.94 ± 0.45 | 1.87 ± 0.51 | COc1ccc2cc3[n+](cc2c1OC)CCc1cc2c(cc1-3)OCO2 [Berberine] | 2.98 ± 0.60 | 5.64 ± 2.19 | we don't find any adverse reactions | very low | – | – | – | – | – | – | – | – | – |
| – | – | – | – | – | – | – | O=c1c2cc(O)c(O)cc2oc2cc(O)c([C@@H]3O[C@H](CO)[C@@H](O)[C@H](O)[C@H]3O)c(O)c12 [Mangiferin] | 2.89 ± 0.69 | 5.36 ± 2.17 | – | – | 1200 ± 391 | 18600 ± 1500 | 4.3 ± 0.4 | 1.64 ± 0.42 | 3.05 ± 0.59 | 0.94 ± 0.45 | 1.87 ± 0.51 | 365 | cannot dissolve in water |
